This is an account of results in ChEMBL document CHEMBL1201862, “PubChem BioAssay data set” (2004).

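Interpolation was linear, between the two tested concentrations surrounding the appropriate level; five concentrations were tested over 48 hours in 96-well plates. GI50 is the concentration that inhibits growth by half.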 The source made the active and inactive calls. Cut-off read from the data, not from the text of the source: active = GI50 up to about 1.1 µM and inactive = higher.

Holding throughout (test): DTP human tumour cell line panel, 48 h
For assay [1], the system named is HCT-116.
For assay [2], the system named is RXF 393.
Assay [3] has as its system SN12C.
Assay [4] deals with COLO 205.
Assay [5] concerns TK-10.
For assay [6], the system named is SF-295.
The test system of assay [7] is HL-60.
For assay [8], the system named is MOLT-4.
The test system of assay [9] is A549.
The test system of assay [10] is HCC 2998.
Assay [11] concerns MDA-N.
Assay [12] has as its system MDA-MB-435.
Assay [13] deals with T47D.
Assay [14] has as its system SK-MEL-2.
Assay [15] has as its system U-251.
Assay [16] concerns MCF7.
For assay [17], the system named is SK-MEL-28.
Assay [18] deals with UACC-257.
Assay [19] has as its system HT-29.

By GI50 is commonly meant the concentration giving 50% growth inhibition.

For `COc1ccc2o/c(=N/c3ccccc3)c(C(N)=O)cc2c1`, the GI50 in assay [1] is > 69.8 µM (inactive); in assay [2], 39.5 µM (inactive); in [3], > 100 µM (inactive); in assay [4], > 100 µM (inactive); in assay [5], > 49.2 µM (inactive); in assay [6], 74 µM (inactive). The GI50 in assay [7] was > 100 µM (inactive); in assay [8] it was > 100 µM (inactive); in assay [9], > 55.3 µM (inactive); in assay [10] it was > 100 µM (inactive); in assay [11], 6.84 µM (inactive); in assay [12] it was 3.45 µM (inactive). For the same compound, the GI50 in [13] was > 100 µM (inactive); in assay [14] it was > 100 µM (inactive); in assay [15] it was > 79.1 µM (inactive); in assay [16] it was 45.9 µM (inactive); in assay [17], > 100 µM (inactive); in assay [18], > 100 µM (inactive).
Regarding `CCOC(=O)C(NC(=O)CC)(Nc1ccc(S(=O)(=O)Nc2nc(C)cc(C)n2)cc1)C(F)(F)F` (stereo not drawn), the GI50 in assay [1], in [2], in assay [3], in assay [4], in assay [5] and in [6] was > 100 µM (inactive) in each case. Also, the GI50 in assay [7], in assay [8], in assay [9], in [19], in assay [10] and in [11] was > 100 µM (inactive) each time. Further, the GI50 in assay [12] is > 100 µM (inactive); in [13] it was > 100 µM (inactive); in assay [14] it was > 100 µM (inactive); in assay [15] it was > 100 µM (inactive); in [16] it was 36.6 µM (inactive); in assay [17], > 100 µM (inactive). Moreover, in assay [18], the GI50 was > 100 µM (inactive).
Consider `CC1(C)C(=O)C2(OS(=O)(=O)C(F)(F)F)CCC1C2` (stereo not drawn), for which the GI50 in assay [1], in assay [2], in assay [3], in [4], in assay [5] and in assay [6] was > 100 µM (inactive) throughout. Further, the GI50 in [7], in [8], in assay [9], in assay [19], in assay [10] and in [11] was > 100 µM (inactive) throughout. For the same compound, the GI50 in assay [12], in assay [13], in [14], in [15], in [16] and in [17] was > 100 µM (inactive) throughout. In assay [18], the GI50 was > 100 µM (inactive).
Turning to `C=C1C(=O)OC2/C=C(\CO)CC/C=C(\CO)CC(OC(=O)C(C)C)C12` (stereo not drawn), the GI50 in assay [1] is 7.4 µM (inactive); in assay [2], 5.83 µM (inactive); in assay [3] it was 13.3 µM (inactive); in [4] it was 2.16 µM (inactive); in assay [5] it was 3.94 µM (inactive); in assay [6], 21.3 µM (inactive). For the same compound, the GI50 in assay [7] is 2.87 µM (inactive); in assay [8], 3.25 µM (inactive); in [9], 20.1 µM (inactive); in [19], 14.6 µM (inactive); in [10], 20.7 µM (inactive); in assay [11] it was 5.68 µM (inactive). Further, the GI50 was 8.75 µM (inactive) in [12]; 4.72 µM (inactive) in assay [13]; 16.5 µM (inactive) in assay [14]; 18.1 µM (inactive) in [15]; 2.66 µM (inactive) in assay [16]; 6.27 µM (inactive) in [17]. In assay [18], the GI50 is 12.2 µM (inactive).
Take `CNC(=O)O/N=C1\N(C)CN(c2ccccc2)C12CCN(CCCC(=O)c1ccc(F)cc1)CC2`: the GI50 in assay [1] is 33 µM (inactive); in [2], 83.6 µM (inactive); in [3] it was > 100 µM (inactive); in [4], 18.2 µM (inactive); in assay [5] it was 79.4 µM (inactive); in assay [6], > 100 µM (inactive). Moreover, the GI50 in [7] is 82 µM (inactive); in [8], 69 µM (inactive); in [9] it was 81.3 µM (inactive); in assay [19] it was 29.1 µM (inactive); in [10], 43 µM (inactive); in [11] it was 39.4 µM (inactive). In addition, the GI50 in assay [12] was 45.9 µM (inactive); in assay [13], > 100 µM (inactive); in assay [14], 60.8 µM (inactive); in [15], > 100 µM (inactive); in [16], 47.9 µM (inactive); in assay [17], > 100 µM (inactive). In addition, the GI50 in assay [18] was 20.1 µM (inactive).
Turning to `Cc1ccnc2[nH]c3ccccc3c(=O)c12`, the GI50 in [1] is 16.6 µM (inactive); in [2], 15.6 µM (inactive); in assay [3], 21.3 µM (inactive); in assay [4] it was 19.8 µM (inactive); in assay [5], 10.1 µM (inactive); in assay [6] it was 35.5 µM (inactive). Further, the GI50 in [7] was 15.1 µM (inactive); in assay [8] it was 20.4 µM (inactive); in assay [19], 15.7 µM (inactive); in assay [10] it was 19.9 µM (inactive); in assay [11], 21 µM (inactive); in assay [12], 19.6 µM (inactive). In addition, the GI50 in [13] is 31.3 µM (inactive); in [14], 25.2 µM (inactive); in [15] it was > 10 µM (inactive); in [16], 21.8 µM (inactive); in [17], 15.1 µM (inactive); in [18] it was 39.4 µM (inactive).
Turning to `CCOC(=O)c1nc2cc(C(F)(F)F)ccc2nc1Oc1ccc(C#N)cc1`, the GI50 in [1] was 16.8 µM (inactive); in assay [2] it was 19.1 µM (inactive); in [3] it was > 100 µM (inactive); in assay [4] it was > 100 µM (inactive); in assay [5], > 100 µM (inactive); in [6] it was > 100 µM (inactive). In addition, the GI50 in assay [7] is 71.8 µM (inactive); in assay [8], 63.2 µM (inactive); in assay [9], > 100 µM (inactive); in [10], 80 µM (inactive); in assay [11], > 100 µM (inactive); in assay [12] it was > 100 µM (inactive). Besides, the GI50 in [13] is 55.7 µM (inactive); in assay [14] it was > 100 µM (inactive); in assay [15], > 100 µM (inactive); in assay [16] it was > 100 µM (inactive); in assay [17], > 100 µM (inactive); in assay [18], > 100 µM (inactive).
Turning to `CCCCc1c2c(c(C)c3c1C(=O)OC3)Oc1ccccc1O2`, the GI50 in assay [1] is 0.565 µM (active); in [2] it was 0.975 µM (active); in assay [3] it was 1.85 µM (inactive); in assay [4], 0.855 µM (active); in assay [5], 2.29 µM (inactive); in assay [6] it was 0.467 µM (active). In addition, the GI50 in assay [7] is 0.316 µM (active); in [8], 0.973 µM (active); in assay [9] it was 1.73 µM (inactive); in assay [10], 0.646 µM (active); in assay [11], 0.145 µM (active); in assay [12], 0.173 µM (active). Besides, the GI50 is 5.11 µM (inactive) in assay [13]; 0.541 µM (active) in assay [14]; 0.57 µM (active) in assay [15]; 1.63 µM (inactive) in assay [16]; > 63.2 µM (inactive) in assay [17]; 0.428 µM (active) in [18].
